The values below come from patent publication US20240150297A1, “NOVEL COMPOUNDS COMPRISING A NEW CLASS OF TRANSTHYRETIN LIGANDS FOR TREATMENT OF COMMON AGE-RELATED COMORBIDITIES” (The Trustees of Columbia University in the City of New York, priority 2021, published 2024).

Where two headings read alike, the source gives them in different places.

Series [1] concerns the target native RBP4 purified from human urine (Homo sapiens (Human), UniProt P02753). In words: RBP4 scintillation proximity (SPA) binding assay. Particulars: read-out: RBP4 SPA IC50; fixed 10 nM 3H-retinol.
A short description of series [2]: Metabolic stability and clearance in cynomolgus monkey liver microsomes. The series is classed as in vitro ADME. How it is done:
(§1) The results of metabolic stability determinations for novel compounds and testosterone (positive control) were conducted in the presence of human, rat, mouse, and monkey liver microsomes. Values shown are percent of parent remaining after a 30 minute incubation. All measurements were done in duplicate. Assay results for testosterone were within an acceptable range.
(§2) Mixed-gender human liver microsomes (Lot# 1710084), male Sprague-Dawley rat liver microsomes (Lot# 1610290), male CD-1 mouse liver microsomes (Lot# 1710069), and male Cynomolgous liver microsomes (Lot# 1510193) were purchased from XenoTech. […]. The test article was added into the reaction mixture at a final concentration of 1 μM. The control compound, testosterone, was run simultaneously with the test article in a separate reaction. An aliquot of the reaction mixture (without cofactor) was equilibrated in a shaking water bath at 37° C. for 3 minutes. The reaction was initiated by the addition of cofactor, and the mixture was incubated in a shaking water bath at 37° C. Aliquots (100 μL) were withdrawn at 0, 10, 20, 30, and 60 minutes. Test article and testosterone samples were immediately combined with 400 μL of ice-cold 50/50 acetonitrile (ACN)/H2O containing 0.1% formic acid and internal standard to terminate the reaction. […] Half-lives were calculated using GraphPad software, fitting to a single-phase exponential decay equation.

A short description of series [3]: Plasma protein binding, human. The series is classed as in vitro ADME. An excerpt:
The peak areas of the test compound in the buffer and test samples were used to calculate percent binding and recovery according to the following formulas:
Areap=Peak area of analyte in protein matrix Areab=Peak area of analyte in buffer Areac=Peak area of analyte in control sample

In a further series the target is CYP2C19 (Homo sapiens (Human), UniProt P33261). Kind of series: CYP450 inhibition assay, CYP2C19. The format is in vitro ADME. Particulars: pH 7.4, read-out: CYP Inhibition (% Inhibition at 10 μm) 2C19.
Series [4] in a line: Metabolic stability and clearance in human liver microsomes. The series is classed as in vitro ADME. How it is done:
as §1, §2

For series [5], the target named is peroxisome proliferator-activated receptor-gamma (PPARγ) receptor (Homo sapiens (Human), UniProt P37231). Kind of series: PPARγ activity.
Another series is described as follows: in vivo. Particulars: male, CD-1, mouse.
The next series has as its system serum RBP4. Kind of series: Serum RBP4 measurement after single oral dose in mice (PK-PD). The format is in vivo, mouse. The method, then:
FIG. 6. Pharmacokinetic and pharmacodynamic properties of 18a in mice. […]. Data are presented as means±SD. Three mice per treatment group were used in the PK-PD study.
Blood samples were collected from a tail vein. Whole blood was drawn into a centrifuge tube and was allowed to clot at room temperature for 30 minutes followed by centrifugation at 2000 g for 15 minutes at […] to collect serum. […] Whole blood was drawn into a centrifuge tube and was allowed to clot at room temperature for 30 min followed by centrifugation at 2000 g for 15 min at +4° C to collect serum.
There was no effect of compound dosing on serum TTR levels (data not shown). […].

For series [6] the following is noted: CD-1 mice.
A short description of series [7]: Metabolic stability and clearance in mouse liver microsomes. The series is classed as in vitro ADME. The method, then: as §1, §2
A short description of the next series: Kinetic solubility assay. The series is classed as physicochemical. Particulars: PBS pH 7.4.
The nature of series [8]: Metabolic stability and clearance in rat liver microsomes. The format is in vitro ADME. How it is done: as §1, §2
In a further series the target is CYP2C9 (Homo sapiens (Human), UniProt P11712). In words: CYP450 inhibition assay, CYP2C9. The series is classed as in vitro ADME.
The target of the next series is CYP2D6 (Homo sapiens (Human), UniProt P10635).
Series [9] has as its target TTR isolated from human plasma (Homo sapiens (Human), UniProt P02766). In words: Fluorescence polarization TTR tetramer binding assay. Particulars: fixed 25 μM FITC-coupled TTR FP probe.
For series [10] the following is noted: 441 ATTR-CM patients; cited from earlier work.
The target in another series is human TTR (Homo sapiens (Human), UniProt P02766). Kind of series: Low pH-induced TTR aggregation assay (SDS-PAGE/Western blot). The series is classed as biochemical. Particulars: 50 μM compound, pH 4.0, 72 h, 37° C. How it is done:
FIG. 5. […]. Bar graphs represent pixel volume means±S.D. of the scanned bands on the immunoblots in arbitrary units for TTR high-molecular-weight aggregates (B), dimers (C), and monomers (D). Statistical significance was determined by one-way ANOVA with Holm-Sidak post hoc test; *, p≤0.05**, p≤0.01***, p≤0.001; ****, p≤0.0001 compared to TTR aggregation+DMSO group (pH4.0) *, p=0.05, **, p≤0.01; ***, p≤0.001; ****, […] compare to TTR without aggregation group (pH=7.5).
The ability of test compounds to prevent TTR aggregation was evaluated under the acidic conditions that favor TTR aggregation and fibril formation. […] At the end of the incubation, 3.5 μl 500 mM sodium phosphate (Sigma #S5136) buffer (pH=8.0) was added to each sample for neutralization and 0.6 μl 5% CHAPS (Sigma #C5070) as a detergent to prevent reassociation of protein. The cross-linking was performed by adding 1.5 μl 5% glutaraldehyde solution (Sigma# G6257). After 4 min, the reaction was stopped by the addition of 2.5 μl freshly made 5% NaBH4. […] Band intensity for TTR monomer and TTR aggregates was quantified from scanned images of the blots.
The ability of TTR ligands to act as kinetic stabilizers of TTR tetramers was assessed in vitro using a low pH-induced TTR aggregation SDS-PAGE assay (Coelho, T. et al. 2016; Cruz, M. W. 2019). […]

CYP2C19, sequence (P33261 whole entry): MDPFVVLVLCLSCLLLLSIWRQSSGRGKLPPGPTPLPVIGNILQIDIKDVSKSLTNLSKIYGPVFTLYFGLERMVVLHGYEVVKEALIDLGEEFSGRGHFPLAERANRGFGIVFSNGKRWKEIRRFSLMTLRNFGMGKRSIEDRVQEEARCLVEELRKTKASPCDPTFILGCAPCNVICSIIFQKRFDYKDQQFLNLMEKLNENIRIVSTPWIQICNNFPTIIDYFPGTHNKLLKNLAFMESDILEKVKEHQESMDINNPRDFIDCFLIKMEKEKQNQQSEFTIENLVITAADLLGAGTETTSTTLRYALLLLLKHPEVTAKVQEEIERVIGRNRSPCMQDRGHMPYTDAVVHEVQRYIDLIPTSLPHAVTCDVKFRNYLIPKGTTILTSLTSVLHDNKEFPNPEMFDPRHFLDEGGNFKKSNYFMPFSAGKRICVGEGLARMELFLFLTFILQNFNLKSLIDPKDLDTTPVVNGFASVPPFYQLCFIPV
CYP2D6, sequence (P10635 whole entry): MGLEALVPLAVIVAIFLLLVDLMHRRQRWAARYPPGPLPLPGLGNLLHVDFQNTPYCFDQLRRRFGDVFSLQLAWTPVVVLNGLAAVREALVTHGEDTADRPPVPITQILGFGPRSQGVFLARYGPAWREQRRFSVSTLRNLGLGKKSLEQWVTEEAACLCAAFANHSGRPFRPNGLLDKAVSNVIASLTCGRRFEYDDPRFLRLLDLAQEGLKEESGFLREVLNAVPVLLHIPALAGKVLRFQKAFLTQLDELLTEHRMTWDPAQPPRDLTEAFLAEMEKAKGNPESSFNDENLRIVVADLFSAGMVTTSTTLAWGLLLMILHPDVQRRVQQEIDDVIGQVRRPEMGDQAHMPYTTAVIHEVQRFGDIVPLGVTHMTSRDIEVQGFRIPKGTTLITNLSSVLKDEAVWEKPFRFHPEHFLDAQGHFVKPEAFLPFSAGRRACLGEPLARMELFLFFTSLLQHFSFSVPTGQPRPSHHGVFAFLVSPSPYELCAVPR
peroxisome proliferator-activated receptor-gamma (PPARγ) receptor, sequence (P37231 whole entry, species assumed): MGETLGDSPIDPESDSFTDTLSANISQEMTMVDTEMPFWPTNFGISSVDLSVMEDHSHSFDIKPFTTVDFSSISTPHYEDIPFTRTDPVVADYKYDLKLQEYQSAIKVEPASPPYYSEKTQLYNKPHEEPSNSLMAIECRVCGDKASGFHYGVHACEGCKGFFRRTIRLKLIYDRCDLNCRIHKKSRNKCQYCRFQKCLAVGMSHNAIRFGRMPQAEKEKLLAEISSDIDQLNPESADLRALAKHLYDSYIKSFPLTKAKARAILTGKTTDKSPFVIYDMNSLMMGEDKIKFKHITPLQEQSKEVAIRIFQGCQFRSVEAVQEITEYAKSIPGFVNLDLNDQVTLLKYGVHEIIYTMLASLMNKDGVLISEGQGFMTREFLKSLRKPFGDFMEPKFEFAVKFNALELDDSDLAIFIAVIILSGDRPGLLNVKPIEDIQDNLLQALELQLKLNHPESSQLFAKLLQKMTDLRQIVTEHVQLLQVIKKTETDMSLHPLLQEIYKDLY
CYP2C9, sequence (P11712 whole entry): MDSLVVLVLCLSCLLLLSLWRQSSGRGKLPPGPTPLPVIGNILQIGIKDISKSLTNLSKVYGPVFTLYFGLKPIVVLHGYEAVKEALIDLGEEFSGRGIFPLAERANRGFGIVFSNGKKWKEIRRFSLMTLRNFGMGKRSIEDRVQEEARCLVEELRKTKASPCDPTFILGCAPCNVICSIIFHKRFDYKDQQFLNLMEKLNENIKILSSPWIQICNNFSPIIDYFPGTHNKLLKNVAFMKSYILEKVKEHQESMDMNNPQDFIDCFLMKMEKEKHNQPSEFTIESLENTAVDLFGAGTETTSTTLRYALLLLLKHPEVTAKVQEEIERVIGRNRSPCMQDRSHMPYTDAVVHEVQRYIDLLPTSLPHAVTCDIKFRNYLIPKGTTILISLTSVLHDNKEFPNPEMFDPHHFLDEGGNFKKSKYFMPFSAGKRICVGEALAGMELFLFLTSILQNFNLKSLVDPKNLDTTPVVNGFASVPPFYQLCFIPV

With `Cc1n[nH]c(C)c1CCCOc1cc(C(=O)O)ccc1F` [AG10 (4), AG10, reference compound], the IC50 in series [1] is > 30000 nM.
For `Cc1n[nH]c(C)c1N1CCN(c2cc(C(=O)O)ccc2F)CC1` [Compound 18a, 3-(4-(3,5-Dimethyl-1H-pyrazol-4-yl)piperazin-1-yl)-4-fluorobenzoic Acid], in series [2] (30 minute incubation), the “Liver Microsomal Stability (% remaining at 30 min) cyno LM” value stood at 94%. Besides, the microsomal CLint at 1 μM in series [2] (male, cynomolgus monkey liver microsomes, read-out: Microsomal CLint, cyno) was < 0.0231 µL/min/mg. The “% PPB human” value in series [3] turned out to be 83%. On CYP2C19, the inhibition at 10 µM stood at 3.1%. Also, in [4] (30 minute incubation), the “Liver Microsomal Stability (% remaining at 30 min) HLM” value was found to be 93%. Further, the microsomal CLint at 1 μM in [4] (both sexes, human liver microsomes) was < 0.0231 µL/min/mg. Moreover, in [5], the EC50 was > 100000 nM. Also, in the series “in vivo” (iv, 2 mg/kg), the clearance was 5.9 mL/min/kg and the half-life was 5.08 h. In the series “in vivo” (po, 5 mg/kg), this molecule yielded an AUC(0-inf) of 16100 ng·h/mL and a Cmax of 1560 ng/mL. Further, the “effect on serum TTR levels” value with serum RBP4 (after compound dosing, data not shown) is given as “no effect”. The “maximal reduction in serum RBP4” value in the series on serum RBP4 (single 25 mg/kg oral dose, 2 h after administration) was found to be 66%. Besides, in [6] (IV 2 mg/kg), the AUCINF is 6242 ng·h/mL; the AUClast was found to be 6214 ng·h/mL; the “CL, total body clearance” value was found to be 5.9 mL/min/kg; the Vss is 2.18 L/kg. This molecule also displayed a t1/2 in series [6] (IV 2 mg/kg) of 5.08 h. Further, in series [6] (PO 5 mg/kg vs IV 2 mg/kg), the “% F, oral bioavailability” value is on record as 103%. In series [6] (PO 5 mg/kg), the AUCINF was found to be 16073 ng·h/mL, the AUClast worked out at 16040 ng·h/mL and the t1/2 stood at 5.38 h. Moreover, the “Liver Microsomal Stability (% remaining at 30 min) MLM” value in [7] (30 minute incubation) is on record as 102%. In addition, in series [7] (male, CD-1, mouse liver microsomes), the microsomal CLint at 1 μM is < 0.0231 µL/min/mg. In addition, the Kinetic solubility in “Kinetic solubility assay” stood at 184.5 µM. Further, the “Liver Microsomal Stability (% remaining at 30 min) RLM” value in series [8] (30 minute incubation) is recorded as 98%. Besides, the intrinsic metabolic clearance (microsomal CLint) at 1 μM in [8] (male, Sprague-Dawley, rat liver microsomes) is < 0.0231 µL/min/mg. At CYP2C9, the “CYP Inhibition (% Inhibition at 10 μm) 2C9” value stood at 2C9 - 10.4%. Moreover, on CYP2D6, the “CYP Inhibition (% Inhibition at 10 μm) 2D6” value is 2D6 - 8.1%.
Consider `Cc1n[nH]c(C)c1N1CCN(c2cccc(C(=O)O)c2)CC1` [Compound 18b, 3-(4-(3,5-Dimethyl-1H-pyrazol-4-yl)piperazin-1-yl)benzoic Acid], for which the IC50 in series [1] is > 30000 nM.
Take `COc1ccc(C(=O)O)cc1N1CCN(c2c(C)n[nH]c2C)CC1` [Compound 18c, 3-(4-(3,5-Dimethyl-1H-pyrazol-4-yl)piperazin-1-yl)-4-methoxybenzoic Acid]: the figures for the concentration for half-maximal inhibition (IC50) in series [9] and in series [1] were 300 nM and > 3000 nM, respectively.
Turning to `Cc1ccc(C(=O)O)cc1N1CCN(c2c(C)n[nH]c2C)CC1` [Compound 18d, 3-(4-(3,5-Dimethyl-1H-pyrazol-4-yl)piperazin-1-yl)-4-methylbenzoic Acid], in series [1], the IC50 was > 3000 nM.
As to `Cc1n[nH]c(C)c1N1CCN(c2cc(C(=O)O)ccc2C(F)(F)F)CC1` [Compound 18e, 3-(4-(3,5-Dimethyl-1H-pyrazol-4-yl)piperazin-1-yl)-4-(trifluoromethyl)benzoic Acid], the IC50 in series [1] was > 3000 nM.
The same measure, in the same setting: the result for `Cc1n[nH]c(C)c1N1CCN(c2cc(C(=O)O)ccc2Cl)CC1` [Compound 18f, 4-Chloro-3-(4-(3,5-dimethyl-1H-pyrazol-4-yl)piperazin-1-yl)benzoic Acid] reads > 3000 nM; that for `Cc1n[nH]c(C)c1N1CCN(c2cccc(C(=O)O)c2F)CC1` [Compound 18g, 3-(4-(3,5-Dimethyl-1H-pyrazol-4-yl)piperazin-1-yl)-2-fluorobenzoic Acid], > 3000 nM; that for `Cc1n[nH]c(C)c1N1CCN(c2ccc(F)c(C(=O)O)c2)CC1` [Compound 18h, 5-(4-(3,5-Dimethyl-1H-pyrazol-4-yl)piperazin-1-yl)-2-fluorobenzoic Acid], > 3000 nM.
`Cc1n[nH]c(C)c1N1CCN(c2cc(F)cc(C(=O)O)c2)CC1` [Compound 18i, 3-(4-(3,5-Dimethyl-1H-pyrazol-4-yl)piperazin-1-yl)-5-fluorobenzoic Acid]: in [1], the IC50 is > 3000 nM.
On the same count and under the same terms, the result for `Cc1cc(F)c(N2CCN(c3c(C)n[nH]c3C)CC2)cc1C(=O)O` [Compound 18j, 5-(4-(3,5-Dimethyl-1H-pyrazol-4-yl)piperazin-1-yl)-4-fluoro-2-methylbenzoic Acid] reads > 3000 nM.
The same measure, in the same setting: to `Cc1noc(C)c1N1CCN(c2cc(C(=O)O)ccc2F)CC1` [Compound 20, 3-(4-(3,5-Dimethylisoxazol-4-yl)piperazin-1-yl)-4-fluorobenzoic Acid] belongs > 3000 nM.
Consider `Cc1n[nH]c(C)c1N1CCN(c2cc(C(N)=O)ccc2F)CC1` [Compound 21, 3-(4-(3,5-Dimethyl-1H-pyrazol-4-yl)piperazin-1-yl)-4-fluorobenzamide], for which, in series [1], the IC50 is > 3000 nM.
Take `Cc1n[nH]c(C)c1N1CCN(c2cc(-c3nn[nH]n3)ccc2F)CC1` [Compound 22, 1-(3,5-Dimethyl-1H-pyrazol-4-yl)-4-(2-fluoro-5-(2H-tetrazol-5-yl)phenyl)piperazine]: the IC50 in series [1] is > 3000 nM.
In turn, `CC/C(=C(/CC)c1ccc(O)cc1)c1ccc(O)cc1` [Diethylstilbesterol] gave a Kinetic solubility in the series “Kinetic solubility assay” of 7.0 µM.
Same read-out and setting: the result for `CC(=O)N1CCN(c2ccc(OCC3COC(Cn4ccnc4)(c4ccc(Cl)cc4Cl)O3)cc2)CC1` (stereo not shown) [Ketoconazole] reads 152.8 µM.
For `O=C(O)c1ccc2nc(-c3cc(Cl)cc(Cl)c3)oc2c1` [Tafamadis (3), tafamidis], in series [1], the 50% inhibitory concentration (IC50) is > 30000 nM. In series [10], the “reduction of rate of cardiovascular-related hospitalizations compared to placebo” value is listed as 32% and the “reduction of risk of death compared to placebo” value was 30%. The “formation of high molecular weight forms of TTR” value on human TTR was “significantly inhibited”.
